Measured values published in the Kinase Knowledgebase extract (Sharma et al. 2016).

Target: EGFR (UniProt P00533)
Sequence (P00533 whole entry, looked up): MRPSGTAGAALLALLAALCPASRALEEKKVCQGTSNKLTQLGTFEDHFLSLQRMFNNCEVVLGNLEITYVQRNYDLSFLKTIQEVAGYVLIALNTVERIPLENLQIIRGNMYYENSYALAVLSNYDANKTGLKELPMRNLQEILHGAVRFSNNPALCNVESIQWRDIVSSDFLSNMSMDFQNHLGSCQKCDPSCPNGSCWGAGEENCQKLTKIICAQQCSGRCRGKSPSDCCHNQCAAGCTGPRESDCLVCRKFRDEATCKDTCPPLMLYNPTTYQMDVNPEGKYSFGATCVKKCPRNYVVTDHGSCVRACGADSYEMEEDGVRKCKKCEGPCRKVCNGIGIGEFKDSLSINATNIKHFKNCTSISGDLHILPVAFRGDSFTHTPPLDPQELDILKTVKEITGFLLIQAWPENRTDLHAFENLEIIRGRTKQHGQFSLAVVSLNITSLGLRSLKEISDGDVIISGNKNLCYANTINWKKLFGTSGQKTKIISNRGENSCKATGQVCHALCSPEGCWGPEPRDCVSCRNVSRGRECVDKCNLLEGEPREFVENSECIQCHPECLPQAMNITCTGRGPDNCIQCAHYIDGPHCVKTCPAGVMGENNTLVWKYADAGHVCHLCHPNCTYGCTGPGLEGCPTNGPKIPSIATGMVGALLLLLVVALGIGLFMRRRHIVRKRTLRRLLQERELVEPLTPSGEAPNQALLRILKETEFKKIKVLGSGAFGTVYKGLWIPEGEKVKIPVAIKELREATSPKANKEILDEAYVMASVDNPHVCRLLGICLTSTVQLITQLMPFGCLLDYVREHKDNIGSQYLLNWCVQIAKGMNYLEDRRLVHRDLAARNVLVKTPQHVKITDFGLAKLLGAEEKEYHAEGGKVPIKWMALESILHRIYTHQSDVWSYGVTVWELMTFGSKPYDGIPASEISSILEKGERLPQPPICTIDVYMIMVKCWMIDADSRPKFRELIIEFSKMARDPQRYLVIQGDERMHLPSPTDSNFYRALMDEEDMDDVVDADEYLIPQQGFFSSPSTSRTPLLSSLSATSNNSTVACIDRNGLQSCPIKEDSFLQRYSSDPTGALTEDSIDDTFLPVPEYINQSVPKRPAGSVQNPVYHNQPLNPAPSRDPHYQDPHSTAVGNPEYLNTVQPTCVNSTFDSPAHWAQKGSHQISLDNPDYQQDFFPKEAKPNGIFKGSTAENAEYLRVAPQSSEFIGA

| Compound | inhibition |
| --- | --- |
| N[C@@H](CCC(=O)N[C@@H](CSc1cc(C[C@H](N)C(=O)O)cc(O)c1O)C(=O)NCC(=O)O)C(=O)O | 4.4 |
| NCCC(=O)N[C@@H](Cc1cc(O)c(O)c(SC[C@H](NC(=O)CC[C@H](N)C(=O)O)C(=O)NCC(=O)O)c1)C(=O)O | 2.2 |
| NCCC(=O)NCCc1cc(O)c(O)c(SC[C@H](NC(=O)CC[C@H](N)C(=O)O)C(=O)NCC(=O)O)c1 | 4.9 |
| N[C@H](Cc1cc(O)c(O)c(SC[C@H](N)C(=O)O)c1)C(=O)O | 0 |
| NCCC(=O)N[C@H](Cc1cc(O)c(O)c(SC[C@H](NC(=O)CC[C@H](N)C(=O)O)C(=O)NCC(=O)O)c1)C(=O)O | 8.2 |

The next lines start with the values.

| inhibition | Compound |
| --- | --- |
| 0 | N[C@H](Cc1cc(O)c(O)c(SC[C@H](NC(=O)CC[C@H](N)C(=O)O)C(=O)NCC(=O)O)c1)C(=O)O |
| 1 | NCCc1cc(O)c(O)c(SC[C@H](NC(=O)CC[C@H](N)C(=O)O)C(=O)NCC(=O)O)c1 |
| 7.6 | NCCc1cc(SC[C@H](NC(=O)CC[C@H](N)C(=O)O)C(=O)NCC(=O)O)c(O)c(O)c1SC[C@@H](NC(=O)CC[C@@H](N)C(=O)O)C(=O)NCC(=O)O |
| 5.2 | C[C@@](Cc1cc(O)c(O)c(SC[C@H](NC(=O)CC[C@H](N)C(=O)O)C(=O)NCC(=O)O)c1)(NC(=O)CCN)C(=O)O |
| 2.9 | N[C@@H](CSc1cc(C[C@H](N)C(=O)O)cc(O)c1O)C(=O)O |
